{"source": "patent US7879792B2", "about": "“Synthetic peptide inhibitors of thrombin and thrombin activation of protease activated receptors 1 and 4” (The Regents of the University of Michigan, priority 2005, dated 2011)", "key": {"[1]": {"target": "human α-thrombin (Homo sapiens, UniProt P00734)", "assay": "inhibition of α-thrombin hydrolysis of chromogenic substrate", "format": "biochemical", "conditions": "Ki (μM) + SD, αIIa (2 nM), alpha-thrombin 2 nM, Sar-Pro-Arg-paranitroanilide"}, "[2]": {"test_system": "normal human citrated plasma", "assay": "prothrombin time (PT)", "format": "biochemical", "experimental": "(§1) The influence of the various peptide formulations used in the present invention on established coagulation-based assays was determined. The activated partial thromboplastin time (APTT) is performed by mixing 0.05 ml normal human citrated plasma with 0.05 ml activated partial thromboplastin reagent purchased from Organon Teknika, Research Triangle Park, NC in the absence or presence of a peptide inhibitor. After incubation for 5 min at 37° C., the mixture is recalcified with 0.05 ml of 30 mM calcium chloride and the time to clot formation is measured in an Amelung KC4A instrument (Sigma Chemical Corp, St. Louis, Mo.) (Hasan et al. Thrombosis and Haemostasis. 82, 1182-1187 (1999)). The prothrombin time (PT) is performed by mixing 0.05 ml normal human citrated plasma with 0.05 ml Simplastin (Organon Teknika, Research Triangle Park, NC) followed by incubation for 3 min at 37° C. in the absence or presence of a peptide inhibitor. At the addition of 0.05 ml of 30 mM calcium chloride, the time to clot formation is measured in an KC4A instrument (Sigma Chemical Corp, St. Louis, Mo.) (Hasan et al. Thrombosis and Haemostasis. 82, 1182-1187 (1999)). The thrombin clotting time (TCT) is performed by adding 0.1 ml normal human citrated plasma in the absence or presence of a peptide inhibitor and 0.05 ml of a α-thrombin solution such that the final concentration of the thrombin in the entire mixture was 1 nM. Upon addition of the thrombin, the time to clot formation is measured in an KC4A instrument (Sigma Chemical Corp, St. Louis, Mo.)."}, "[3]": {"test_system": "normal human citrated plasma", "assay": "thrombin clotting time (TCT)", "format": "biochemical", "conditions": "1 nM thrombin", "experimental": "as §1"}, "[4]": {"target": "γ-thrombin", "assay": "inhibition of γ-thrombin hydrolysis of chromogenic substrate", "format": "biochemical, human", "conditions": "read-out: Ki (μM) + SD, γIIa (2 nM), gamma-thrombin 2 nM, Sar-Pro-Arg-paranitroanilide"}, "[5]": {"test_system": "normal human lung fibroblasts (NHLF)", "assay": "α-thrombin-induced calcium mobilization in normal human lung fibroblasts", "format": "cell-based", "conditions": "2 nM alpha thrombin", "experimental": "The second assay developed to assess peptides from the combinatorial libraries uses inhibition of α-thrombin-induced calcium mobilization in fibroblasts. Normal human lung fibroblasts (NHLF) were purchased from Clonetics, San Diego, Calif., an affiliate of Bio-Wittaker, Walkersville, Md. The cytoplasmic free Ca^2+ concentration ([Ca^2+]i) was measured using the fluorescent Ca^2+ indicator fura-2 (Molecular Probes, Inc., Eugene, Oreg.). Suspension of fibroblasts in Hepes-Tyrode's buffer were loaded with fura-2 by incubation at 37° C. with 2 μM fura-2/acetoxymethyl ester for 45 minutes according to the method of Rasmussen et al., J. Biol. Chem. 268, 14322 (1993). The labeled fibroblasts were separated from excess probe by washing by centrifugation at 1000 rpm (180 xg). Aliquots of the labeled fibroblasts were transferred into a quartz cuvette with a magnetic stirrer, which was then placed in a thermostatically controlled chamber at 37° C. in a fluorescence spectrophotometer (Perkin-Elmer LS50B spectrofluorometer, Chicago, Ill.). Reagents, test peptide, and α-thrombin (0.25-2 nM), were sequentially added directly to the cuvette. The excitation wavelengths varied between 340 and 380 nm. Fluorescence was measured by recording emitted light at 510 nm as reported by Fisher et al., Mol Pharm. 35, 195 (1989). The minimum emission was determined on a solubilized fibroblast sample in the presence of 10 mM EDTA; maximum emission was determined on the same sample with 10 mM Ca^2+ added. The intrafibroblast free Ca^2+ concentration was calculated by the method of Grykiewicz et al., J. Biol. Chem. 260, 3440 (1985). The ratio of the fluorescence readings was calculated as R=340/380 nm and processed according to the equation [Ca^2+]i=KD((R−Rmin)/Rmax−R))(Sf2/Sb2) to determine the intrafibroblast free Ca^2+ concentration. The KD for fura-2 was assumed to be 224 nM. Rmax and Rmin are the maximum and minimum fluorescence ratios measured at the end of the experiment, respectively; Sf2 and Sb2 are the fluorescence values at 380 nm in the absence and presence of saturating [Ca^2+], respectively. The reaction was monitored for 3-5 minutes."}, "[6]": {"test_system": "γ-thrombin-induced platelet aggregation", "assay": "γ-thrombin-induced platelet aggregation in human platelet-rich plasma", "format": "cell-based", "conditions": "for Concentration of Peptide [mM] That Gives 100% Inhibition: 40 nM human gamma thrombin, human platelet-rich plasma; for concentration that abolished γ-thrombin-induced platelet aggregation: 40 nM γ-thrombin", "experimental": "Fresh whole blood was collected and mixed with 0.013 M sodium citrate and platelet-rich plasma was prepared according to the method of Meloni et al., J. Biol. Chem. 266, 6786 (1991). Platelet-rich plasma with a normalized platelet count between 2-2.5×10^8 platelets/ml was added to a cuvette of an aggregometer (Chronlog Corp., Havertown, Pa.), standardized using the protocol of Meloni et al., supra. Peptides to be examined were added to the cuvette and the mixture stabilized for a few moments. Once the baseline was stabilized, γ-thrombin (10-70 nM) (Haematologic Technologies, Essex Junction, Vt.) was added to determine the minimal concentration of the agonist necessary to achieve full platelet aggregation. All investigations with peptides were performed using threshold concentrations of γ-thrombin. Aggregation was allowed to proceed for 5 minutes before stopping.\nTable III is a tabulation of the library of peptides prepared and their influence on γ-thrombin-induced platelet aggregation in platelet-rich plasma. […] The numbers in the column represent the minimal concentration (mM) of the peptide that blocked 100% γ-thrombin-induced platelet aggregation of platelets in human platelet-rich plasma.\nHuman platelet samples were stimulated with 40 nM human gamma thrombin in each experiment."}, "[7]": {"test_system": "normal human citrated plasma", "assay": "activated partial thromboplastin time (APTT)", "format": "biochemical", "experimental": "as §1"}}, "note": "Where two headings read alike, the source gives them in different places. Where a SMILES comes first, the peptide text is derived from it.", "data": [{"compound": "C[C@@H](NC(=O)[C@@H]1CCCN1C(=O)[C@@H]1C[C@@H]2CCCC[C@@H]2N1C(=O)[C@H](N)CCCNC(=N)N)C(=O)N[C@@H](Cc1ccc(Br)cc1)C(N)=O", "note": "[rOicPaF(p-Br), D-Arg-Oic-Pro-D-Ala-Phe(p-Br)] (HELM PEPTIDE1{[dR].[O=C([C@@H]1C[C@@H]2CCCC[C@@H]2N1[*:1])[*:2]].P.[dA].[O=C([C@H](Cc1ccc(Br)cc1)N[*:1])[*:2]].[am]}$$$$V2.0)", "values": [{"measurement": "Ki", "setting": "[1]", "value": "6.4 to 10.6", "unit": "µM"}, {"measurement": "peptide concentration with significant prolongation (p<0.05) of the PT", "setting": "[2]", "value": 6.25, "unit": "µM"}, {"measurement": "peptide concentration with significant prolongation (p<0.05) of the TCT", "setting": "[3]", "value": 0.78, "unit": "µM"}, {"measurement": "Ki", "setting": "[4]", "value": "48.7 ± 7", "unit": "µM"}, {"measurement": "inhibition of thrombin-induced calcium mobilization", "setting": "[5]; 0.005 mM peptide", "value": 35, "unit": "%"}, {"measurement": "inhibition of thrombin-induced calcium mobilization", "setting": "[5]; 0.02 mM peptide", "value": 84, "unit": "%"}, {"measurement": "Concentration of Peptide [mM] That Gives 100% Inhibition", "setting": "[6]", "value": 0.018, "unit": "mM"}, {"measurement": "concentration that abolished γ-thrombin-induced platelet aggregation", "setting": "[6]", "value": 18, "unit": "µM"}, {"measurement": "peptide concentration with significant prolongation (p<0.05) of the APTT", "setting": "[7]", "value": 12.5, "unit": "µM"}]}, {"compound": "C[C@@H](NC(=O)[C@@H]1CCCN1C(=O)[C@@H]1C[C@@H]2CCCC[C@@H]2N1C(=O)[C@H](N)CCCNC(=N)N)C(=O)N[C@@H](Cc1ccc(I)cc1)C(N)=O", "note": "[rOicPaF(p-I), D-Arg-Oic-Pro-D-Ala-Phe(p-I)] (HELM PEPTIDE1{[dR].[O=C([C@@H]1C[C@@H]2CCCC[C@@H]2N1[*:1])[*:2]].P.[dA].[O=C([C@H](Cc1ccc(I)cc1)N[*:1])[*:2]].[am]}$$$$V2.0; N-terminus assumed)", "values": [{"measurement": "peptide concentration with significant prolongation (p<0.05) of the PT", "setting": "[2]", "value": 6.25, "unit": "µM"}, {"measurement": "peptide concentration with significant prolongation (p<0.05) of the TCT", "setting": "[3]", "value": 0.78, "unit": "µM"}, {"measurement": "Ki", "setting": "[4]; listed as rOicPsF(p-I)", "value": "59.2 ± 13", "unit": "µM"}, {"measurement": "inhibition of thrombin-induced calcium mobilization", "setting": "[5]; 0.005 mM peptide", "value": 36, "unit": "%"}, {"measurement": "inhibition of thrombin-induced calcium mobilization", "setting": "[5]; 0.02 mM peptide", "value": 88, "unit": "%"}, {"measurement": "Concentration of Peptide [mM] That Gives 100% Inhibition", "setting": "[6]", "value": 0.023, "unit": "mM"}, {"measurement": "concentration that abolished γ-thrombin-induced platelet aggregation", "setting": "[6]", "value": 23, "unit": "µM"}, {"measurement": "peptide concentration with significant prolongation (p<0.05) of the APTT", "setting": "[7]", "value": 25, "unit": "µM"}]}, {"compound": "C[C@@H](NC(=O)[C@@H]1CCCN1C(=O)[C@@H]1C[C@@H]2CCCC[C@@H]2N1C(=O)[C@H](N)CCCNC(=N)N)C(=O)N[C@@H](Cc1ccc([N+](=O)[O-])cc1)C(N)=O", "note": "[rOicPaF(p-NO2), D-Arg-Oic-Pro-D-Ala-Phe(p-NO2)] (HELM PEPTIDE1{[dR].[O=C([C@@H]1C[C@@H]2CCCC[C@@H]2N1[*:1])[*:2]].P.[dA].[O=C([C@H](Cc1ccc([N+](=O)[O-])cc1)N[*:1])[*:2]].[am]}$$$$V2.0; N-terminus assumed)", "values": [{"measurement": "peptide concentration with significant prolongation (p<0.05) of the PT", "setting": "[2]", "value": 6.25, "unit": "µM"}, {"measurement": "peptide concentration with significant prolongation (p<0.05) of the TCT", "setting": "[3]", "value": 1.56, "unit": "µM"}, {"measurement": "Ki", "setting": "[4]; listed as rOicPsF(p-NO2)", "value": "87.9 ± 16", "unit": "µM"}, {"measurement": "inhibition of thrombin-induced calcium mobilization", "setting": "[5]; 0.005 mM peptide", "value": 26, "unit": "%"}, {"measurement": "inhibition of thrombin-induced calcium mobilization", "setting": "[5]; 0.02 mM peptide", "value": 47, "unit": "%"}, {"measurement": "Concentration of Peptide [mM] That Gives 100% Inhibition", "setting": "[6]", "value": 0.033, "unit": "mM"}, {"measurement": "concentration that abolished γ-thrombin-induced platelet aggregation", "setting": "[6]", "value": 33, "unit": "µM"}, {"measurement": "peptide concentration with significant prolongation (p<0.05) of the APTT", "setting": "[7]", "value": 50, "unit": "µM"}]}]}
